How the values were obtained:
[1] = Intrinsic clearance in rat hepatocytes; format: ADME, cell-based, Hepatocyte; settings: read-out: CLH (converted)
[2] = molecular target: T1, Solute carrier family 2, facilitated glucose transporter member 1 (Homo sapiens, UniProt P11166); test: Inhibition of human GLUT1 expressed in DLD1 cells assessed as ATP production co-incubated with 100 mM glucose for 16 hrs by CellTiter-Glo assay in presence of oxidative phosphorylation inhibitor rotenone; format: cell-based, DLD-1
T1 sequence (P11166 whole entry): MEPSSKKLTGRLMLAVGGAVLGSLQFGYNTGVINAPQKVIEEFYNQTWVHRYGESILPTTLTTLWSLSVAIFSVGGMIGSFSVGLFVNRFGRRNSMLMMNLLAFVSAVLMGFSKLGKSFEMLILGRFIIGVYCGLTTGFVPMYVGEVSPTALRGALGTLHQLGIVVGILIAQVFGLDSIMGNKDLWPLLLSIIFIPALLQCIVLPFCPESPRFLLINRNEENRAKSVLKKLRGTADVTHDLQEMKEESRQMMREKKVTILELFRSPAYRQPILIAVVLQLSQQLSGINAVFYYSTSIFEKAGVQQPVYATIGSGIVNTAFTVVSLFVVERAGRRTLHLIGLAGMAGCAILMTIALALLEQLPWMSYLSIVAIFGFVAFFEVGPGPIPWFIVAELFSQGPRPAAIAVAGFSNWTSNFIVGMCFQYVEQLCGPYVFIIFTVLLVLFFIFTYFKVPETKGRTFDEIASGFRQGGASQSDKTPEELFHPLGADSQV

[3] = Intrinsic clearance in human liver microsomes; format: ADME; settings: read-out: CLH (converted)
[4] = Efflux ratio of apparent permeability from basolateral to apical side over apical to basolateral side in human Caco2 cells; format: ADME, cell-based; settings: Caco-2
[5] = molecular target: T2, Solute carrier family 2, facilitated glucose transporter member 3 (Homo sapiens, UniProt P11169); test: Inhibition of human GLUT3 expressed in GLUT1 knock-out DLD1 cells assessed as ATP production co-incubated with 300 mM glucose for 16 hrs by CellTiter-Glo assay in presence of oxidative phosphorylation inhibitor rotenone; format: cell-based, DLD-1
T2 sequence (P11169 whole entry): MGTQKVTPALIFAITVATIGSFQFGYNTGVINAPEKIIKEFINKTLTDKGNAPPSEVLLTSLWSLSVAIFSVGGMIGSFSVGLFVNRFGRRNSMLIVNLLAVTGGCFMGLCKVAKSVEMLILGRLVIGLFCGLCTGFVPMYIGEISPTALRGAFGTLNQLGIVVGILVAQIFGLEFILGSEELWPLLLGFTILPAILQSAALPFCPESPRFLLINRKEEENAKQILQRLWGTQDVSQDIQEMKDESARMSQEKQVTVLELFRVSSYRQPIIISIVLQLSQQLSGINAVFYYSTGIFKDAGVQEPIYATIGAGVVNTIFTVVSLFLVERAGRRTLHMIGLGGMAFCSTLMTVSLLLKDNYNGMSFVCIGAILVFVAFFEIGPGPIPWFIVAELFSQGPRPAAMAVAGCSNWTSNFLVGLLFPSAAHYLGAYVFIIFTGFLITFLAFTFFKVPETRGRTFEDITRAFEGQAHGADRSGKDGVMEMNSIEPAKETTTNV

[6] = Apparent permeability from apical to basolateral side in human Caco2 cells at 2 uM after 2 hrs; format: ADME, cell-based; settings: Caco-2
[7] = molecular target: T3, Solute carrier family 2, facilitated glucose transporter member 2 (Homo sapiens, UniProt P11168); test: Inhibition of human GLUT2 expressed in CHO cells assessed as ATP production co-incubated with 30 mM fructose for 16 hrs by CellTiter-Glo assay in presence of oxidative phosphorylation inhibitor rotenone; format: cell-based
T3 sequence (P11168 whole entry): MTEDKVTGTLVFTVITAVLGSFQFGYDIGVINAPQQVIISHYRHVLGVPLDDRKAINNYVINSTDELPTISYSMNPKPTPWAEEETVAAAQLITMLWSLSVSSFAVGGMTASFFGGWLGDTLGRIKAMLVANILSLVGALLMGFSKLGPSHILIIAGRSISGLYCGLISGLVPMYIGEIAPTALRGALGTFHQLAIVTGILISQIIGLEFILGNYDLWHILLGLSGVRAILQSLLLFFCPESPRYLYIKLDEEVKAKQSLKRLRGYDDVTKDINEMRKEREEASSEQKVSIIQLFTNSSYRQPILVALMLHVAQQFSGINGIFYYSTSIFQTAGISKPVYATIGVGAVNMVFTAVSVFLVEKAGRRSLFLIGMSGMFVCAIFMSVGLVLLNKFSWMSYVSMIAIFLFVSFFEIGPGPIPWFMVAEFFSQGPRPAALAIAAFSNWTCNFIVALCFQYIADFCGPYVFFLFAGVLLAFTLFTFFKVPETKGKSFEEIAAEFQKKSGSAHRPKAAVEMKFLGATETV

[8] = Intrinsic clearance in rat liver microsomes; format: ADME; settings: read-out: CLH (converted)
[9] = Intrinsic clearance in human hepatocytes; format: ADME, cell-based, Hepatocyte; settings: read-out: CLH (converted)
[10] = Intrinsic clearance in mouse liver microsomes; format: ADME; settings: read-out: CLH (converted)
[11] = Cmax in Wistar rat at 5 mg/kg, po; format: ADME, organism-based; set-up: dose 5 mg/kg, route oral; settings: in vivo
[12] = Terminal half life in Wistar rat at 0.3 mg/kg, iv and 5 mg/kg, po; format: ADME, organism-based; settings: in vivo, read-out: beta t1/2 (converted)
[13] = Volume of distribution at steady state in Wistar rat at 0.3 mg/kg, iv and 5 mg/kg, po; format: ADME, organism-based; settings: in vivo, read-out: Vdss
[14] = Oral bioavailability in Wistar rat at 5 mg/kg; format: ADME, organism-based; settings: in vivo
[15] = Blood clearance in Wistar rat at 0.3 mg/kg, iv and 5 mg/kg, po; format: ADME, organism-based; settings: whole blood

## COc1ccccc1N1CCN(c2ncnc3c2cnn3C2CCCC2)CC1
[1]
  CLint scaled: 61.7 mL/min/kg
[2]
  IC50: 40 nM
[3]
  CLint scaled: 13.8 mL/min/kg
[4]
  efflux ratio: 0.33
[5]
  IC50: 120 nM
[6]
  Papp A→B at 2 h, 2 µM: 15.3 ×10⁻⁶ cm/s
[7]
  IC50: 2000 nM

## COc1ccccc1N1CCN(c2ncnc3c2cnn3-c2ccccc2)CC1
[8]
  CLint scaled: 36.7 mL/min/kg
[9]
  CLint scaled: 14 mL/min/kg
[1]
  CLint scaled: 45 mL/min/kg
[2]
  IC50: 25 nM
[3]
  CLint scaled: 2.33 mL/min/kg
[4]
  efflux ratio: 0.29
[10]
  CLint scaled: 38.3 mL/min/kg
[5]
  IC50: 250 nM
[6]
  Papp A→B at 2 h, 2 µM: 5.9 ×10⁻⁶ cm/s
[7]
  IC50: > 10000 nM

## COc1ccccc1N1CCN(c2ncnc3c2cnn3-c2ccccc2F)CC1
[11]
  Cmax: 1700 nM
[9]
  CLint scaled: 13.2 mL/min/kg
[1]
  CLint scaled: 36.7 mL/min/kg
[12]
  half-life: 2.7 h
[2]
  IC50: 7 nM
[3]
  CLint scaled: 8.33 mL/min/kg
[4]
  efflux ratio: 0.42
[13]
  Vd: 1.9 L/kg
[10]
  CLint scaled: 28.3 mL/min/kg
[14]
  bioavailability: 67%
[5]
  IC50: 40 nM
[15]
  clearance: 20 mL/min/kg
[6]
  Papp A→B at 2 h, 2 µM: 17.5 ×10⁻⁶ cm/s
[7]
  IC50: 1100 nM

## COc1ccccc1N1CCN(c2ncnc3c2cnn3-c2cccc(F)c2)CC1
[2]
  IC50: 35 nM
[3]
  CLint scaled: 9.17 mL/min/kg
[10]
  CLint scaled: 31.7 mL/min/kg
[5]
  IC50: 120 nM
[7]
  IC50: > 10000 nM
